Assay results reported in ChEMBL document CHEMBL4477248, “Blinded predictions of binding modes and energies of HSP90-α ligands for the 2015 D3R grand challenge” (Bioorg Med Chem, 2016).
Calls of active or inactive are those of the source. The rule behind the calls is not given here.

Target: Heat shock protein HSP 90-alpha (Homo sapiens, UniProt P07900)
Assay: Inhibition of HSP90alpha (unknown origin)

Row | Compound | IC50 | inhibition
1 | COC(=O)c1cc(C(=O)c2ccc(OC)cc2)cc(C(=O)OC)c1OC | > 1 µM | –
2 | O=c1[nH]c2cc(CNS(=O)(=O)c3cccnc3)ccc2n1-c1cc(Cl)c(O)cc1O | 0.005 µM | –
3 | CCOC(=O)CC1(C)Oc2ccccc2O1 | – | inactive
4 | COc1cc(F)c(Cl)cc1C(=O)c1ccc(OCc2ccccc2)cc1 | > 1 µM | –
5 | CCn1c(=O)n(-c2ccccc2OC)c2ccccc21 | > 1 µM | –

Next, values leading:

Row | IC50 | inhibition | Compound
6 | – | Active | O=C1c2ccccc2C(=O)c2c1ccc1nonc21
7 | > 1 µM | – | O=C1c2ccccc2-c2ccccc21
8 | – | inactive | CC(=O)Oc1ccc([N+](=O)[O-])c2ccccc12
9 | – | Active | CC(=O)Oc1ccc2c(=O)c(Cc3ccccc3)c(C)oc2c1OC(C)=O
10 | – | Active | Cn1c2c([n+](C)c1CCl)C(=O)c1ccccc1C2=O
